Reference: the NIST ThermoML archive (doi:10.1016/j.tca.2012.05.023)

Assay: molar heat capacity at constant pressure
Details: 101.33 kPa, Crystal, Vacuum adiabatic calorimetry

O=C([O-])c1cnccn1.O=C([O-])c1cnccn1.O=C([O-])c1cnccn1.[Cr+3] [chromium(III) pyrazine-2-carboxylate]
Details	molar heat capacity at constant pressure [J/K/mol]
78.86 K	155.98
80 K	158.16
80.64 K	158.92
83.3 K	162.11
85 K	164.76
85.88 K	166.03
88.38 K	169.59
90 K	171.35
90.8 K	172.28
93.14 K	175.35
95 K	177.94
95.47 K	178.53
97.73 K	181.47
99.91 K	184.54
100 K	184.53
102.06 K	187.64
104.19 K	189.79
105 K	191.12
106.26 K	192.72
108.39 K	195.56
110 K	197.7
110.39 K	198.32
112.38 K	200.9
114.31 K	203.62
115 K	204.28
116.37 K	206.2
118.23 K	208.83
120 K	210.86
120.16 K	211.45
122.08 K	214.08
125 K	217.43
125.04 K	217.8
128.55 K	221.83
130 K	223.99
131.51 K	226.29
134.47 K	230.41
135 K	230.55
137.5 K	234.21
140 K	237.1
140.45 K	237.72
143.48 K	241.61
145 K	243.64
146.44 K	245.42
149.4 K	249.27
150 K	250.18
152.43 K	252.82
155 K	256.7
155.38 K	257.11
158.34 K	260.91
160 K	263.21
161.37 K	264.59
164.4 K	269.32
165 K	269.71
167.42 K	273.11
170 K	276.2
170.38 K	276.93
173.34 K	280.52
175 K	282.68
176.44 K	284.26
179.4 K	287.73
180 K	289.15
182.42 K	292.31
185 K	295.6
186.48 K	297.74
190 K	302.03
190.68 K	302.64
193.71 K	306.32
195 K	308.46
196.73 K	310.4
199.76 K	313.83
200 K	314.86
202.79 K	317.64
205 K	321.25
205.75 K	321.74
208.71 K	325.63
210 K	327.63
211.73 K	329.9
214.76 K	333.75
215 K	333.98
217.79 K	337.53
220 K	340.32
220.81 K	341.42
223.77 K	344.95
225 K	346.64
226.8 K	348.56
229.76 K	352.76
230 K	352.95
232.79 K	356.86
